Biological target: recombinant CaMKIIδ (Homo sapiens (Human), UniProt Q13557)
Assay: CaMKIIδ biochemical assay (HTRF)
Conditions: 10 pM CaMKIIδ, 110 nM calmodulin, 12 μM ATP, 1 hour; read-out: CAMKIID-HTRF-384V2 (IC50 - nM)
Description: CaMKIIδ Biochemical Assay
The biochemical activity of recombinant CaMKIIδ was measured by monitoring the phosphorylation of a target peptide using Homogenous Time Resolved Fluorescence (HTRF) technology from CisBio Bioassays.

IC50 [nM] | SMILES
0.31 | CC[C@@H](CNC(=O)c1cc(-c2cnn3ccc(-c4cccs4)nc23)nc(N2CC[C@H]2C(=O)NC)c1)N(CC)CC (single isomer, unassigned) [Example 356A]
3.04 | CC[C@H](CNC(=O)c1cc(-c2cnn3ccc(-c4cccs4)nc23)nc(N2CC[C@H]2C(=O)NC)c1)N(CC)CC (single isomer, unassigned) [Example 356B]
9.44 | NCC1CC(F)(F)CN1C(=O)c1ccnc(-c2cnn3ccc(-c4cccs4)nc23)c1 (stereo in doubt) [Example 78, (S)-(2-(aminomethyl)-4,4-difluoropyrrolidin-1-yl)(2-(5-(thiophen-2-yl)pyrazolo[1,5-a]pyrimidin-3-yl)pyridin-4-yl)methanone]
0.18 | CCN(CC)[C@@H](C)CNC(=O)c1cc(-c2cnn3ccc(-c4cccs4)nc23)nc(N2CCC(C#N)C2)c1 (stereo in doubt) [Example 313, 2-((S)-3-cyanopyrrolidin-1-yl)-N—((S)-2-(diethylamino)propyl)-6-(5-(thiophen-2-yl)pyrazolo[1,5-a]pyrimidin-3-yl)isonicotinamide]
5.55 | O=C(NCC12CCCN1CCC2)c1ccnc(-c2cnn3ccc(-c4cccs4)nc23)c1 [Example 3, N-((hexahydro-1H-pyrrolizin-7a-yl)methyl)-2-(5-(thiophen-2-yl)pyrazolo[1,5-a]pyrimidin-3-yl)isonicotinamide]
12.7 | O=C(NC[C@@H]1C[C@H](F)CN1)c1ccnc(-c2cnn3ccc(-c4cccs4)nc23)c1 [Example 5, N-(((2S,4S)-4-fluoropyrrolidin-2-yl)methyl)-2-(5-(thiophen-2-yl)pyrazolo[1,5-a]pyrimidin-3-yl)isonicotinamide]
6.05 | O=C(NC[C@@H]1CCN1)c1ccnc(-c2cnn3ccc(-c4cccs4)nc23)c1 [Example 7, (S)—N-(azetidin-2-ylmethyl)-2-(5-(thiophen-2-yl)pyrazolo[1,5-a]pyrimidin-3-yl)isonicotinamide]
10 | O=C(NC[C@H]1CCN1)c1ccnc(-c2cnn3ccc(-c4cccs4)nc23)c1 [Example 8, (R)—N-(azetidin-2-ylmethyl)-2-(5-(thiophen-2-yl)pyrazolo[1,5-a]pyrimidin-3-yl)isonicotinamide]
26 | CN(C)CCNC(=O)c1ccnc(-c2cnn3ccc(-c4cccs4)nc23)c1 [Example 9, N-(2-(dimethylamino)ethyl)-2-(5-(thiophen-2-yl)pyrazolo[1,5-a]pyrimidin-3-yl)isonicotinamide]
9.8 | CCC[C@@]1(CNC(=O)c2ccnc(-c3cnn4ccc(-c5cccs5)nc34)c2)CCCN1 [Example 10, (S)—N-((2-propylpyrrolidin-2-yl)methyl)-2-(5-(thiophen-2-yl)pyrazolo[1,5-a]pyrimidin-3-yl)isonicotinamide]
10.7 | CC[C@@]1(CNC(=O)c2ccnc(-c3cnn4ccc(-c5cccs5)nc34)c2)CCCN1 [Example 11, (S)—N-((2-ethylpyrrolidin-2-yl)methyl)-2-(5-(thiophen-2-yl)pyrazolo[1,5-a]pyrimidin-3-yl)isonicotinamide]
14.9 | C[C@@]1(CNC(=O)c2ccnc(-c3cnn4ccc(-c5cccs5)nc34)c2)CCCN1 [Example 12, (S)—N-((2-methylpyrrolidin-2-yl)methyl)-2-(5-(thiophen-2-yl)pyrazolo[1,5-a]pyrimidin-3-yl)isonicotinamide]
153 | C[C@@H](NC(=O)c1ccnc(-c2cnn3ccc(-c4cccs4)nc23)c1)[C@@H]1CCCN1 [Example 13, N—((R)-1-((S)-pyrrolidin-2-yl)ethyl)-2-(5-(thiophen-2-yl)pyrazolo[1,5-a]pyrimidin-3-yl)isonicotinamide]
23.8 | C[C@@H](CNC(=O)c1ccnc(-c2cnn3ccc(-c4cccs4)nc23)c1)NCC(F)F [Example 14, (S)—N-(2-((2,2-difluoroethyl)amino)propyl)-2-(5-(thiophen-2-yl)pyrazolo[1,5-a]pyrimidin-3-yl)isonicotinamide]
8.34 | CCN(CC(F)F)[C@@H](C)CNC(=O)c1ccnc(-c2cnn3ccc(-c4cccs4)nc23)c1 [Example 15, (S)—N-(2-((2,2-difluoroethyl)(ethyl)amino)propyl)-2-(5-(thiophen-2-yl)pyrazolo[1,5-a]pyrimidin-3-yl)isonicotinamide]
60 | O=C(NCC1CCCCCN1)c1ccnc(-c2cnn3ccc(-c4cccs4)nc23)c1 (centres unmarked) [Example 16, N-(azepan-2-ylmethyl)-2-(5-(thiophen-2-yl)pyrazolo[1,5-a]pyrimidin-3-yl)isonicotinamide]
7.47 | CC(C)C[C@@]1(CNC(=O)c2ccnc(-c3cnn4ccc(-c5cccs5)nc34)c2)CCCN1 [Example 17, (R)—N-((2-isobutylpyrrolidin-2-yl)methyl)-2-(5-(thiophen-2-yl)pyrazolo[1,5-a]pyrimidin-3-yl)isonicotinamide]

IC50 [nM] | SMILES
6.51 | O=C(NC[C@]1(CC2CC2)CCCN1)c1ccnc(-c2cnn3ccc(-c4cccs4)nc23)c1 [Example 18, (R)—N-((2-(cyclopropylmethyl)pyrrolidin-2-yl)methyl)-2-(5-(thiophen-2-yl)pyrazolo[1,5-a]pyrimidin-3-yl)isonicotinamide]
89.3 | O=C(NCC1CCCCN1)c1ccnc(-c2cnn3ccc(-c4cccs4)nc23)c1 (centres unmarked) [Example 19, N-(piperidin-2-ylmethyl)-2-(5-(thiophen-2-yl)pyrazolo[1,5-a]pyrimidin-3-yl)isonicotinamide]
4.97 | CCN[C@@H](C)CNC(=O)c1ccnc(-c2cnn3ccc(-c4cccs4)nc23)c1 [Example 20, (S)—N-(2-(ethylamino)propyl)-2-(5-(thiophen-2-yl)pyrazolo[1,5-a]pyrimidin-3-yl)isonicotinamide]
27.8 | C[C@@H](CNC(=O)c1ccnc(-c2cnn3ccc(-c4cccs4)nc23)c1)NCCO [Example 21, (S)—N-(2-((2-hydroxyethyl)amino)propyl)-2-(5-(thiophen-2-yl)pyrazolo[1,5-a]pyrimidin-3-yl)isonicotinamide]
13.9 | C[C@H](N)CNC(=O)c1ccnc(-c2cnn3ccc(-c4cccs4)nc23)c1 [Example 22, (S)—N-(2-aminopropyl)-2-(5-(thiophen-2-yl)pyrazolo[1,5-a]pyrimidin-3-yl)isonicotinamide]
14.6 | CCCN[C@@H](C)CNC(=O)c1ccnc(-c2cnn3ccc(-c4cccs4)nc23)c1 [Example 23, (S)—N-(2-(propylamino)propyl)-2-(5-(thiophen-2-yl)pyrazolo[1,5-a]pyrimidin-3-yl)isonicotinamide]
7.88 | C[C@@H](CNC(=O)c1ccnc(-c2cnn3ccc(-c4cccs4)nc23)c1)NCCF [Example 24, (S)—N-(2-((2-fluoroethyl)amino)propyl)-2-(5-(thiophen-2-yl)pyrazolo[1,5-a]pyrimidin-3-yl)isonicotinamide]
10.7 | C[C@@H](CNC(=O)c1ccnc(-c2cnn3ccc(-c4cccs4)nc23)c1)NCC1CC1 [Example 26, (S)—N-(2-((cyclopropylmethyl)amino)propyl)-2-(5-(thiophen-2-yl)pyrazolo[1,5-a]pyrimidin-3-yl)isonicotinamide]
18.4 | C[C@@H](CNC(=O)c1ccnc(-c2cnn3ccc(-c4cccs4)nc23)c1)NCC(F)F [Example 27, (S)—N-(2-((2,2-difluoroethyl)amino)propyl)-2-(5-(thiophen-2-yl)pyrazolo[1,5-a]pyrimidin-3-yl)isonicotinamide]
53.4 | C[C@@H](CNC(=O)c1ccnc(-c2cnn3ccc(-c4cccs4)nc23)c1)NCC(F)(F)F [Example 28, (S)-2-(5-(thiophen-2-yl)pyrazolo[1,5-a]pyrimidin-3-yl)-N-(2-((2,2,2-trifluoroethyl)amino)propyl)isonicotinamide]
7.72 | CCN[C@H](CC)CNC(=O)c1ccnc(-c2cnn3ccc(-c4cccs4)nc23)c1 [Example 29, (R)—N-(2-(ethylamino)butyl)-2-(5-(thiophen-2-yl)pyrazolo[1,5-a]pyrimidin-3-yl)isonicotinamide]
3.67 | CCN[C@@H](CC)CNC(=O)c1ccnc(-c2cnn3ccc(-c4cccs4)nc23)c1 [Example 30, (S)—N-(2-(ethylamino)butyl)-2-(5-(thiophen-2-yl)pyrazolo[1,5-a]pyrimidin-3-yl)isonicotinamide]
18 | CC(C)N[C@@H](C)CNC(=O)c1ccnc(-c2cnn3ccc(-c4cccs4)nc23)c1 [Example 32, (S)—N-(2-(isopropylamino)propyl)-2-(5-(thiophen-2-yl)pyrazolo[1,5-a]pyrimidin-3-yl)isonicotinamide]
8.44 | CCN[C@H](C)CNC(=O)c1ccnc(-c2cnn3ccc(-c4cccs4)nc23)c1 [Example 33, (R)—N-(2-(ethylamino)propyl)-2-(5-(thiophen-2-yl)pyrazolo[1,5-a]pyrimidin-3-yl)isonicotinamide]
12.4 | O=C(NC[C@@H]1CCCN1)c1ccnc(-c2cnn3ccc(-c4cccs4)nc23)c1 [Example 34, (S)—N-(pyrrolidin-2-ylmethyl)-2-(5-(thiophen-2-yl)pyrazolo[1,5-a]pyrimidin-3-yl)isonicotinamide]
95.5 | CN1CCC[C@H]1CNC(=O)c1ccnc(-c2cnn3ccc(-c4cccs4)nc23)c1 [Example 35, (S)—N-((1-methylpyrrolidin-2-yl)methyl)-2-(5-(thiophen-2-yl)pyrazolo[1,5-a]pyrimidin-3-yl)isonicotinamide]

SMILES | IC50 [nM]
COC1CN(c2cc(C(=O)N3C4CC[C@@H]3CCNC4)cc(-c3cnn4ccc(-c5ccccc5)nc34)n2)C1 (stereo in doubt) [Example 330, (-3,9-diazabicyclo[4.2.1]nonan-9-yl)(2-(3-methoxyazetidin-1-yl)-6-(5-phenylpyrazolo[1,5-a]pyrimidin-3-yl)pyridin-4-yl)methanone] | 44.6
CCC(CNC(=O)c1ccnc(-c2cnn3ccc(-c4cccs4)nc23)c1)NC(C)C (centres unmarked) [Example 31, N-(2-(isopropylamino)butyl)-2-(5-(thiophen-2-yl)pyrazolo[1,5-a]pyrimidin-3-yl)isonicotinamide] | 12.1
